Experimental data reported in ChEMBL document CHEMBL1201862, “PubChem BioAssay data set” (2004).
Each block holds one compound with its values, some of them ahead of it. Calls of active or inactive are those of the source.

Key:
[1] = P. falciparum Dd2 growth inhibitors, dose response, SYBR Green, cherry-picked samples (AID 1159567); format: functional, cell-based
[2] = target: Luciferin 4-monooxygenase (Photinus pyralis, UniProt P08659); experiment: inhibition of purified Photinus pyralis luciferase – biochemical, luminescence, dose response (AID 1891)
[3] = Luminescence Cell-Based Dose Confirmation HTS to Identify Inhibitors of Platelet Dense Granule Release. [Related pubchem assays: 1663 (Primary HTS), 1678 (Summary of Project)]; format: functional
Cytochrome P450 3A4 = Cytochrome P450 3A4 (Homo sapiens, UniProt P08684); conditions: Potency;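 also: confirmatory qHTS run detecting inhibitors and substrates of CYP3A4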
[4] = target: Eukaryotic translation initiation factor 4E (Mus musculus, UniProt P63073); experiment: blockers of eIF4G binding by eIF4E – biochemical, TR-FRET, dose response (AID 855); format: functional;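 also: potency for disrupting eIF4E binding to eIF4GI seen as loss of FRET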
Fatty acid synthase [5] = target: T1, Fatty acid synthase (Homo sapiens, UniProt P49327); experiment: inhibition of human FAS-TE enzyme activity – biochemical, kinetic fluorescence intensity, dose response (AID 624326); format: functional;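 also: rate of fluorescence rise from hydrolysis of a fluorogenic O-methyl fluorescein ester substrate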
Fatty acid synthase [6] = target: T1, Fatty acid synthase; experiment: inhibition of human FAS-TE enzyme activity – biochemical, endpoint fluorescence intensity, uHTS hits, dose response (AID 624327); format: functional;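 also: fluorescence from hydrolysis of an O-methyl fluorescein acyl ester substrate by the enzyme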
[7] = HIV-1 AD8 envelope cell-cell fusion blockers – cherry-pick, dose response (AID 652062); format: functional, cell-based;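 also: luciferase signal from cell-cell fusion driven by HIV-1 clade B AD8 Env; potency is for inhibitors of fusion seen as a drop in luminescence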
[8] = blockers of HIV-1 envelope-mediated cell-cell fusion – cherry-pick, dose response (AID 652057); format: functional, cell-based
[9] = target: T2, Calpain-2 catalytic subunit (Sus scrofa, UniProt P43367); experiment: m-calpain protease blockers, concentration series – biochemical, fluorogenic peptide substrate, dose response (AID 1420); format: functional
T2 sequence (P43367 whole entry): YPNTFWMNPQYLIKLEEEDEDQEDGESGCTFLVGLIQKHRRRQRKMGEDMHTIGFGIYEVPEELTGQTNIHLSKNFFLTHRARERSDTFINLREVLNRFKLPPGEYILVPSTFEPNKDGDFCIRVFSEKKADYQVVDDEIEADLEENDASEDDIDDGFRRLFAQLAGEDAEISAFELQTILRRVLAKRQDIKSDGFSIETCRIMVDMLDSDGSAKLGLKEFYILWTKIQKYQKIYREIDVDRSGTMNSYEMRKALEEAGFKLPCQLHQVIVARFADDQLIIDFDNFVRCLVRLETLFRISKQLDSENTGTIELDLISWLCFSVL

[10] = target: T3, Corticotropin-releasing factor receptor 2/Corticotropin-releasing factor-binding protein (Homo sapiens, UniProt P24387+Q13324); experiment: Dose Response confirmation of uHTS hits for small molecule antagonists of the CRF-binding protein and CRF-R2 receptor complex.; format: functional; conditions: read-out: IC50_Mean
T3 sequence (Q13324 whole entry): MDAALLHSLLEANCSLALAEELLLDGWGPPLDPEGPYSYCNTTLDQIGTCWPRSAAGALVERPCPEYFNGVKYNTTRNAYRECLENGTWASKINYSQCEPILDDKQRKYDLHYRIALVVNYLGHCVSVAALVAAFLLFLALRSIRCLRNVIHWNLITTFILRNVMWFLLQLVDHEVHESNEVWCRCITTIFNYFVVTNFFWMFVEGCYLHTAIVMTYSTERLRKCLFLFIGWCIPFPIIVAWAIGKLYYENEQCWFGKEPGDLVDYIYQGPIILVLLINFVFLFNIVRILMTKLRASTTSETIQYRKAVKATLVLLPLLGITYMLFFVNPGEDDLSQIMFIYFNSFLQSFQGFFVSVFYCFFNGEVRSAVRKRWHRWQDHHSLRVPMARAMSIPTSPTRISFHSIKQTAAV
T3 sequence (P24387 whole entry): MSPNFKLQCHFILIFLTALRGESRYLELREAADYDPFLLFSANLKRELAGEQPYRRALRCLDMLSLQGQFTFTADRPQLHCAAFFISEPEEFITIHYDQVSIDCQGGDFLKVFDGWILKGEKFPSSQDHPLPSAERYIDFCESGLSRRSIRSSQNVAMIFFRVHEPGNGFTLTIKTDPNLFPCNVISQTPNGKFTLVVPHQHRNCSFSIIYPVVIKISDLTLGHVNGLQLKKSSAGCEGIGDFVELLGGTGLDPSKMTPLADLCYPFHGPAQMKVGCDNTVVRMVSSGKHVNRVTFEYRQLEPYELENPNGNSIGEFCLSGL

[11] = target: T3, Corticotropin-releasing factor receptor 2/Corticotropin-releasing factor-binding protein; experiment: activators of CRF receptor 2 with binding protein – uHTS hits, confirmation (AID 602473); format: functional; conditions: read-out: EC50_Mean
[12] = blockers of HIV-1 ZM109 envelope-driven cell-cell fusion – HeLa effector, CEM target cells, luciferase, cherry-pick, dose response (AID 652058); format: functional, cell-based;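 also: luciferase signal from HIV-1 Env mediated cell-cell fusion of effector and target cells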
[13] = target: T4, High affinity choline transporter 1 (Homo sapiens, UniProt Q9GZV3); experiment: human choline transporter blockers, potency – cell-based, 5-point CRC, membrane potential dye, dose response (AID 504840); format: functional
T4 sequence (Q9GZV3 whole entry): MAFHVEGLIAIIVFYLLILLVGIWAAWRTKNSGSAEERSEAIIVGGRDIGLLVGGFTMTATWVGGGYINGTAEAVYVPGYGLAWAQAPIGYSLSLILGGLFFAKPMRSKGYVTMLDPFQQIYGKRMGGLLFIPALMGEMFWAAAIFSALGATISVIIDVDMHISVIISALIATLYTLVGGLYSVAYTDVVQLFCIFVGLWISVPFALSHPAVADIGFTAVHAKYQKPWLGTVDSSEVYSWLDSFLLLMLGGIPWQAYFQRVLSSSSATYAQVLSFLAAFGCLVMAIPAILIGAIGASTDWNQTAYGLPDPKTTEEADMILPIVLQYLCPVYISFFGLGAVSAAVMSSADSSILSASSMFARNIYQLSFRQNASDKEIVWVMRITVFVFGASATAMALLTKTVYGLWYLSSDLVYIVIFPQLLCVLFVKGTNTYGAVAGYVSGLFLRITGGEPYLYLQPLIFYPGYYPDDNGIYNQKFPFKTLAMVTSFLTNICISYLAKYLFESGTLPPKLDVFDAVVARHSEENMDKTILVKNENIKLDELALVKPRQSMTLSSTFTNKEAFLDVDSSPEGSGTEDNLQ

Cytochrome P450 3A4, sequence (P08684 whole entry): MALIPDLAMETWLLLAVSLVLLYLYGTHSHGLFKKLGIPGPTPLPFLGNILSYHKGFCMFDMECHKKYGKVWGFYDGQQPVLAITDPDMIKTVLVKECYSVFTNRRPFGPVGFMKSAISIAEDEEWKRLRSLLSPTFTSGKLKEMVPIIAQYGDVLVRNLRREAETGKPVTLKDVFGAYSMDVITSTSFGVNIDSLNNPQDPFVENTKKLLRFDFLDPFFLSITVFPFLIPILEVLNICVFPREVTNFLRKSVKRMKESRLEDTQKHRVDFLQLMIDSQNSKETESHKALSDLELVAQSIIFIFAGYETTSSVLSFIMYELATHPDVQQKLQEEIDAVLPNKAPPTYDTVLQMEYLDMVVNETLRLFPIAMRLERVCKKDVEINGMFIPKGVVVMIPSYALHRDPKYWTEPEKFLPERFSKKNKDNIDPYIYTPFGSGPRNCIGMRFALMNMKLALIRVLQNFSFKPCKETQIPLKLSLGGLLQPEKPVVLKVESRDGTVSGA
Luciferin 4-monooxygenase, sequence (P08659 whole entry): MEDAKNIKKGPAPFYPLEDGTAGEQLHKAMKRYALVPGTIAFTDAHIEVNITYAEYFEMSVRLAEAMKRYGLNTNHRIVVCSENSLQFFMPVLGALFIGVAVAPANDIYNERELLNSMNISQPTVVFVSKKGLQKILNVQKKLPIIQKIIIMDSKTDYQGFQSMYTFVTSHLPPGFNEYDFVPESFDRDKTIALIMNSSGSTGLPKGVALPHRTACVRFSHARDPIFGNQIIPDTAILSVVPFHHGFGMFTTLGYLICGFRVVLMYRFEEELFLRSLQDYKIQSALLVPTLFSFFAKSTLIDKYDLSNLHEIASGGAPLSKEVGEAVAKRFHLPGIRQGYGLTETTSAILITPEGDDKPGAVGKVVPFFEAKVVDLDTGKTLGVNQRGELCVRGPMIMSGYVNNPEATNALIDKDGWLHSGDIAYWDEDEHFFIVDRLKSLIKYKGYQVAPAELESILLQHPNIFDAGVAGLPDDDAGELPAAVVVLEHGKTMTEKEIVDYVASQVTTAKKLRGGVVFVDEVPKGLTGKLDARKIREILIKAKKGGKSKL
T1 sequence (P49327 whole entry): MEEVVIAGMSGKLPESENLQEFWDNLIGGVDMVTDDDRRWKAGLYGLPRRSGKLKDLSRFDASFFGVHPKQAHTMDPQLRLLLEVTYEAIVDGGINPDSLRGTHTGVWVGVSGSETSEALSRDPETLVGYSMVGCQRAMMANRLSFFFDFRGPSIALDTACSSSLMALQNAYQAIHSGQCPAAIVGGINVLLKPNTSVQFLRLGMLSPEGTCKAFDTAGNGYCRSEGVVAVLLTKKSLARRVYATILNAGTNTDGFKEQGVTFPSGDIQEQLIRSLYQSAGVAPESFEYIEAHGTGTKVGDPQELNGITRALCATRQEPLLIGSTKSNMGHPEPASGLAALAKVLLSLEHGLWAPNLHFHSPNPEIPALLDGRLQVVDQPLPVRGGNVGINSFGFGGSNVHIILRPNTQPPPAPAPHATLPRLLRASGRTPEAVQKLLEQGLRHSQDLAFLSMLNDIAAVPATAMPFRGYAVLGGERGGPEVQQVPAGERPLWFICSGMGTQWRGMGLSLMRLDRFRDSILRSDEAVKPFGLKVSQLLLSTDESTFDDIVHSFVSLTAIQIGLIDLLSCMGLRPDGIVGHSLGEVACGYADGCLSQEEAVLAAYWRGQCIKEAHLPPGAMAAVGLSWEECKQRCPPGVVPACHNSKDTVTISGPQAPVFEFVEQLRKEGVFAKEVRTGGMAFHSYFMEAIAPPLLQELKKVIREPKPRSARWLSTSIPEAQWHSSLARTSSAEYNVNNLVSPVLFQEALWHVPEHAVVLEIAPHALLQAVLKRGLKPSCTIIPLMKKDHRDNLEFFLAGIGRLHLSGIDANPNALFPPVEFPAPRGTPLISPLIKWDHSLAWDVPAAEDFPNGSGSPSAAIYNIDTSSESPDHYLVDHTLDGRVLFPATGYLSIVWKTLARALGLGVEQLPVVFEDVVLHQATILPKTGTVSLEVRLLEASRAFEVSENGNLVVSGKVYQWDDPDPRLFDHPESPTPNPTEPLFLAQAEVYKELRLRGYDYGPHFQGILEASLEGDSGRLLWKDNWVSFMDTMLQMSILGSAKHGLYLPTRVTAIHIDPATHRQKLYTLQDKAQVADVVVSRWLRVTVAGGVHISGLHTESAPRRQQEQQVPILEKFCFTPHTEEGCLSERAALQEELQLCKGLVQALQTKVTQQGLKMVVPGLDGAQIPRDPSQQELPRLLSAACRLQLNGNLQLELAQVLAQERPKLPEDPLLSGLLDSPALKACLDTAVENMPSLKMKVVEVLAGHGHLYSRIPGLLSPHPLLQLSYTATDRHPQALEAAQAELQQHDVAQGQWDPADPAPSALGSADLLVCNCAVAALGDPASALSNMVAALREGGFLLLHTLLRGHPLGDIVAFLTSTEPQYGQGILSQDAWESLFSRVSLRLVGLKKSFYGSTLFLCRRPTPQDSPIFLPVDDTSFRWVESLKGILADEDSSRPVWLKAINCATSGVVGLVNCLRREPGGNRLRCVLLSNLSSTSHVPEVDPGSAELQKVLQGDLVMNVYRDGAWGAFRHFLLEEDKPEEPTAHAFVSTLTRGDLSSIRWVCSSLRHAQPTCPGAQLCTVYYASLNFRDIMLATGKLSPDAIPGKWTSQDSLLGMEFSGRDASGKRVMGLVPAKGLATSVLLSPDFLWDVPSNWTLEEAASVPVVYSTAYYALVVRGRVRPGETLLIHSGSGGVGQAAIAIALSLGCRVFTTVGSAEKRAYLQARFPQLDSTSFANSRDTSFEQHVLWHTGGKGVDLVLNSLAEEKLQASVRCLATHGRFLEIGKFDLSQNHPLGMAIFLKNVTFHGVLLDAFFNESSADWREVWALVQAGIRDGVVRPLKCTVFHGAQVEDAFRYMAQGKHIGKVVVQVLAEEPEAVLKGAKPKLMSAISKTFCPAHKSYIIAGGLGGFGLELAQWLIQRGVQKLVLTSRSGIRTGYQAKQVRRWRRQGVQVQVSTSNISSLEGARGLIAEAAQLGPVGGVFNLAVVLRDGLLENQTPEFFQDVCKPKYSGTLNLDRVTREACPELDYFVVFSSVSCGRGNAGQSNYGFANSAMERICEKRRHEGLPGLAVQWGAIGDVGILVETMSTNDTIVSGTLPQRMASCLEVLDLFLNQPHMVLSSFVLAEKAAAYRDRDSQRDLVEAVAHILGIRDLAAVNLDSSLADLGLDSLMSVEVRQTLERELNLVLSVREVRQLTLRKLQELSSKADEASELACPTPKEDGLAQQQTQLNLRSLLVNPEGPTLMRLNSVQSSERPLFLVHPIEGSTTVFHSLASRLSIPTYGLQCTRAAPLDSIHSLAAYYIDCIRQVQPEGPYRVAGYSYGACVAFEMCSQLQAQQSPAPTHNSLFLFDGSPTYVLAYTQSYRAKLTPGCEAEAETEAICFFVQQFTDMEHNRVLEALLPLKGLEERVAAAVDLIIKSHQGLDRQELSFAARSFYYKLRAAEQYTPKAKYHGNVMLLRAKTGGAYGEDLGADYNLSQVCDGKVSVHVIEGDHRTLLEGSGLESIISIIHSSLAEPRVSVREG
Eukaryotic translation initiation factor 4E, sequence (P63073 whole entry): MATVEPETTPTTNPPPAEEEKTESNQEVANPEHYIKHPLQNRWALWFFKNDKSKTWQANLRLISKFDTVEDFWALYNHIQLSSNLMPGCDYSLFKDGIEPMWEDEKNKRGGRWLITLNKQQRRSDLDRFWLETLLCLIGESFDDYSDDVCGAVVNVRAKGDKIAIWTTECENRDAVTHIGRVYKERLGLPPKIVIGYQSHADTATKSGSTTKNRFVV

SMILES: C[C@@H]1CN([C@H](C)CO)S(=O)(=O)c2ccc(C#Cc3ccccc3)cc2O[C@H]1CN(C)S(=O)(=O)c1cn(C)cn1
AC50 [1]: 3.7 µM (active)

SMILES: CCOC(=O)N1CCN(Cc2nc3c(c(=O)n(C)c(=O)n3C)n2Cc2cccc3ccccc23)CC1
EC50 [2]: > 112 µM (not active) | EC50 [3]: > 112 µM (not active)

SMILES: COCCn1cc(C(=O)N2CCC(C)CC2)c2c3ccccc3n(C)c2c1=O
EC50 [2]: > 112 µM (not active) | EC50 [3]: > 112 µM (not active)

SMILES: CCOC(=O)[C@@H]1[C@H]2COc3ccc(Br)cc3[C@@H]2N2C(=O)N(c3cccc(Cl)c3)C(=O)[C@@]12C
IC50 (Fatty acid synthase [5]): 11.8 µM (active) | IC50 (Fatty acid synthase [6]): 22.9 µM (inactive)

SMILES: CC(C)(C)OC(=O)N1CCc2onc(-c3ccc(Br)cc3)c2C1=O
AC50 [7]: 59.9 µM (active) | AC50 [8]: 64.9 µM (active)

SMILES: COc1cccc(S(=O)(=O)N2CCC3(CC2)CN[C@@H](CO)c2[nH]c4cc(OC)ccc4c23)c1
AC50 [1]: 5.39 µM (active)

SMILES: CCOC(=O)NCCc1ccc(OC)cc1
EC50 [2]: > 112 µM (not active) | EC50 [3]: > 112 µM (not active)

SMILES: CC(=O)NC1(c2ccccc2)CCN(C(=O)N2CCOCC2)CC1
IC50 [9]: 7.15 µM (not active)

SMILES: COc1ccc(CN2C[C@H](C)[C@H](OC)CN(C)C(=O)c3cc(NC(=O)c4nc5ccccc5s4)ccc3OC[C@@H]2C)cc1
AC50 [1]: 5.29 µM (active)

SMILES: COc1cc2c(cc1OC)C1Cc3ccc(OC)c(OC)c3CN1CC2 (stereo not drawn)
AC50 (Cytochrome P450 3A4): 31.6 µM (inconclusive)

SMILES: COc1ccc(NC(=O)N(C)C[C@H]2OCc3ccccc3-c3c(n(C)c4ccccc34)C(=O)N([C@@H](C)CO)C[C@H]2C)c(OC)c1
AC50 [1]: 4.92 µM (active)

SMILES: COC(=O)CCC(C)C1CCC2C3C(O)C[C@@H]4CC(O)CC[C@@]4(C)C3CC(O)[C@]12C (stereo partly drawn)
AC50 (Cytochrome P450 3A4): 20 µM (inconclusive)

SMILES: C[C@H](CO)N1C[C@H](C)[C@H](CN(C)S(=O)(=O)c2cccs2)Oc2ccc(NC(=O)Nc3cccc4ccccc34)cc2CC1=O
AC50 [7]: < 0.26 µM (active) | AC50 [12]: < 0.26 µM (active) | AC50 [8]: < 0.26 µM (active)

SMILES: C[C@H](CO)N1C[C@H](C)[C@H](CN(C)C(=O)C2CC2)Oc2cc(C#Cc3ccccc3)ccc2S1(=O)=O
AC50 [1]: 4.27 µM (active)

SMILES: COC(=O)[C@@H]1C[C@@]2(O)[C@H](O)[C@H](O)[C@H](O)C[C@H]2N1Cc1cccnc1
AC50 (Cytochrome P450 3A4): 31.6 µM (inconclusive)

SMILES: CCOC(=O)N1CCC(Nc2ccc(N3C(=O)C4CCCCC4C3=O)cc2[N+](=O)[O-])CC1 (stereo not drawn)
IC50 [9]: 7.24 µM (active)

SMILES: C[C@H](CO)N1C[C@H](C)[C@@H](CN(C)Cc2ccc(Oc3ccccc3)cc2)Oc2ccc(NS(=O)(=O)c3cn(C)cn3)cc2CC1=O
AC50 [1]: 9.82 µM (active)

SMILES: Cc1cccc(OCC(=O)Nc2nc[nH]n2)c1C
EC50 [3]: > 112 µM (not active)

SMILES: CCOC(=O)N1CCN(CC(=O)N2CCC(C(N)=O)CC2)CC1
EC50 [2]: > 112 µM (not active) | EC50 [3]: > 112 µM (not active)

SMILES: CC(=O)N1CC=CC1(CC(C)C)C(=O)NCc1ccccn1 (stereo not drawn)
AC50 (Cytochrome P450 3A4): 20 µM (inconclusive)

Continued, values first:

AC50 (Cytochrome P450 3A4): 25.1 µM (inconclusive)
SMILES: CC(=O)[C@@H]1[C@H]2[C@H](C(=O)[C@H]3OC[C@@H]2O3)[C@H]2C=Cc3ccccc3N21

IC50 [4]: 50 µM (inactive)
SMILES: Cc1c(C(=O)N2CCCCC2)nn(-c2ccc(Cl)cc2)c(=O)c1C#N

IC50 (Fatty acid synthase [5]): 2.31 µM (active) | IC50 (Fatty acid synthase [6]): 2.69 µM (active)
SMILES: O=C(/C=C/c1cccc([N+](=O)[O-])c1)N1CCN(S(=O)(=O)c2cccs2)CC1

IC50 [9]: 7.13 µM (not active) | IC50 [10]: 3.47 µM (active) | EC50 [11]: > 53 µM (inactive)
SMILES: Cc1cccc(NC(=O)c2cc(S(=O)(=O)c3ccccc3)ccc2Cl)c1

IC50 [9]: 22.8 µM (not active)
SMILES: Cc1nn(-c2ccc(Cl)c(Cl)c2Cl)c(=O)c2ccccc12

IC50 (Fatty acid synthase [5]): 6.9 µM (active) | IC50 (Fatty acid synthase [6]): 5.11 µM (active)
SMILES: Cc1ccc(S(=O)(=O)Nc2cccc(-c3ccc(N4CCCCCC4)nn3)c2)c(C)c1

AC50 (Cytochrome P450 3A4): 6.31 µM (inconclusive)
SMILES: Cn1cc(C2=C(c3cn(CCCSC(=N)N)c4ccccc34)C(=O)NC2=O)c2ccccc21

IC50 (Fatty acid synthase [5]): 60.6 µM (inactive) | IC50 (Fatty acid synthase [6]): 30 µM (inactive)
SMILES: CCC(C)NC(=O)CSc1nc2c(sc(=S)n2Cc2ccco2)c(=O)n1-c1ccccc1 (stereo not drawn)

EC50 [2]: > 112 µM (not active)
SMILES: Cc1cccc(OCC(=O)Nc2nnc[nH]2)c1C

IC50 [4]: > 64 µM (inactive)
SMILES: O=C(Oc1ccc(=O)n(-c2ccccc2)n1)c1cccc(Cl)c1

IC50 [9]: 0.917 µM (not active)
SMILES: Cc1nn(Cc2ccc(Cl)cc2Cl)c(C)c1NC(=O)c1nn(C)cc1Cl

IC50 (Fatty acid synthase [5]): 5.75 µM (active) | IC50 [13]: 12.6 µM (active) | IC50 (Fatty acid synthase [6]): 5.09 µM (active)
SMILES: CCCCCc1nc2sc3c(c2c(=O)n1NC(=O)c1ccc([N+](=O)[O-])cc1)CC(C)(C)OC3

IC50 [9]: > 50 µM (not active)
SMILES: Cc1ccc([N+](=O)[O-])cc1NC(=O)C[n+]1ccccc1

IC50 (Fatty acid synthase [5]): 4.26 µM (active) | IC50 (Fatty acid synthase [6]): 1.83 µM (active)
SMILES: COc1ccc(C(=O)N/C(=C\c2cn(S(=O)(=O)N(C)C)c3ccccc23)C(=O)N2CCOCC2)cc1

IC50 (Fatty acid synthase [5]): 10.7 µM (active) | IC50 (Fatty acid synthase [6]): 10.5 µM (active)
SMILES: CCc1cccc(C)c1NC(=O)COC(=O)c1cc([N+](=O)[O-])ccc1N1CCOCC1

IC50 (Fatty acid synthase [5]): 9.36 µM (active) | IC50 (Fatty acid synthase [6]): 11.7 µM (active)
SMILES: O=C(Nc1c(C(=O)N2CCOCC2)cnn1-c1ccccc1)c1ccc([N+](=O)[O-])cc1

AC50 (Cytochrome P450 3A4): 15.8 µM (inconclusive)
SMILES: CCCn1c(C)nc2c(NCc3ccccc3)nc(C)nc21

AC50 (Cytochrome P450 3A4): 39.8 µM (inconclusive)
SMILES: COc1ccc2c(c1)OCc1c-2oc2cc(OC)ccc12 [DEHYDROVARIABILIN]

AC50 (Cytochrome P450 3A4): 25.1 µM (inconclusive)
SMILES: c1cc2c3c(c1)ccc1cccc(c13)C2

AC50 (Cytochrome P450 3A4): 15.8 µM (inconclusive)
SMILES: COC(=O)c1ccc(C23CC4(C2)[C@H](CN(CC2CCCCC2)[C@@H]4c2ccccc2)C3c2ccc(C(F)(F)F)cc2)cc1 (stereo partly drawn)
